From US7534766B2, “Glucuronide metabolites and epimers thereof of tigecycline” (Wyeth, priority 2004, dated 2009)
Where two headings read alike, the source gives them in different places.

Key:
[1] = Stability of [14C]tigecycline during extraction from control human serum; format: in vitro ADME
Description: In serum samples, [^14C]tigecycline accounted for 94% of the radioactivity prior to spiking and extracting the samples. After the extraction process, the amount of [^14C]tigecycline had decreased 24% to 70% of the radioactivity. There was a corresponding increase in other radioactive components, mainly the epimer of tigecycline, which increased from 4% prior to extraction to 22% following the extraction. Other minor products, which included M3a, increased from 2% prior to extraction to 8% following the extraction.
Additional serum samples were prepared as descried above and extracted. This was done to determine the effects, if any, of the extraction process on the stability of [^14C]tigecycline. These samples were analyzed by HPLC with radioactivity flow detection, as described in example 6.

[2] = Mass balance: percent of [14C]tigecycline dose excreted in human urine and feces
Method: The concentration of tigecycline-related components in serum, urine and feces was calculated based on the total radioactivity concentrations reported elsewhere. These concentrations were converted to ng-tigecycline equivalents using the specific activity of the dose (1.00 μCi/mg). Using this value, the concentrations of the specific components were then estimated based on the distribution of radioactivity in the radiochromatograms.
An open-label, inpatient, multiple-dose tigecycline, single-dose [^14C]tigecycline metabolic disposition and mass balance study was performed in six healthy male volunteers. The clinical protocol called for twelve subjects. Of these twelve, six received the radioactive dose (subjects 1, 4, 5, 6, 7, and 8 with subject 8 later dropping out of the study.) Eligible subjects were selected based on inclusion/exclusion criteria, medical history, physical examination and additional procedures outlined in the study protocol. Each subject received a 100 mg loading dose on the morning of Day 1, followed by a 50 mg maintenance dose every 12 hours for an additional 5 doses. On the morning of study Day 4, six subjects received a single 50 mg dose of [^14C]tigecycline (50 μCi). Each tigecycline dose was administered via a 30-minute intravenous infusion.
Serum samples were collected for metabolite profiling prior to tigecycline dosing and 1, 4, 8, 24 and 48 hours following the [^14C]-labeled dose. For metabolite profiling, urine samples were collected at 0-4, 4-8, 8-24 and 24-48 hours and fecal samples were collected up to 48 hours following the [^14C]-labeled dose. Serum and urine samples, and fecal homogenates were shipped on dry ice to the Biotransformation Division of Drug Safety and Metabolism, Wyeth Research, Collegeville, Pa. The details of the sample collection and sample storage are described in the mass balance portion of the study. The 24-48 hour urine and fecal samples for subject #6 were incomplete since the subject withdrew from the study. While samples from this subject were used for metabolite profiling, the samples were not included in the mass balance calculations.

[3] = dogs, cited from earlier work
[4] = Stability of [14C]tigecycline in control human serum incubated at 37° C.; conditions: for percent radioactivity in spiked control serum: 37° C., 3 μg/mL
Method: The stability of [^14C]tigecycline was examined in control serum incubated at 37° C. for up to 24 hours.
The stability of [^14C]tigecycline was determined in control human serum spiked with [^14C]tigecycline at 3 μg/mL and incubated at 37° C. […] Aliquots (500 μL) were removed at 0, 1, 4, 8 and 24 hours and placed into fresh vials. EDTA (40 μL of 0.5 M) was added and samples centrifuged at 14,000 rpm and room temperature for 10 min (Eppendorf centrifuge, Model 5415C). Supernatants were transferred to HPLC vials and analyzed by HPLC with radioactivity flow detection.

[5] = Stability of [14C]tigecycline in control human urine incubated at 37° C.; conditions: for percent of radioactivity in spiked control urine: 37° C., 5 μg/mL
Method: The stability of [^14C]tigecycline was determined in control human urine spiked with [^14C]tigecycline at 5 μg/mL and incubated at 37° C. […] Aliquots (500 μL) were removed at 0, 1, 4, 8 and 24 hours and placed into fresh vials. These urine samples were processed and analyzed as described for serum in control example 2.

[6] = Stability of [14C]tigecycline during extraction from control human fecal homogenates; format: in vitro ADME
Description: Similar results were observed following the extraction of [^14C]tigecycline from control fecal homogenates. In these samples, [^14C]tigecycline accounted for 94% of the radioactivity prior to extraction and 68% following the extraction. There was a corresponding increase in the epimer of tigecycline, which represented 4% of the radioactivity prior to extraction and 23% following the extraction. […] Other minor products represented less than 1% of the radioactivity prior to the extraction and 4% following the extraction.
The stability of [^14C]tigecycline during the extraction process was determined in control human fecal homogenates spiked with [^14C]tigecycline at 5 μg/g of homogenate. […] Samples were extracted and analyzed by HPLC with radioactivity flow detection.

[7] = rats, cited from earlier work
[8] = LC/MS detection of tigecycline metabolites in CD-1 mouse serum and urine after intravenous tigecycline; conditions: mouse, in vivo, iv, 5 mg/kg
Method: Fifteen male CD-1 mice, with an average weight of 31.3 g at the time of dosing, were used. Animals were given food and water ad libitum. Mice in the 0.5 and 2 hour blood collection groups were housed in standard cages, while those in the 4 hour blood collection group were housed in metabolism cages for the collection of urine. Mice were dosed by the Bioresources Department at Wyeth Research, Collegeville, Pa.
For mice and rabbits, the intravenous dosing solutions was prepared by dissolving 50 mg of tigecycline in 5.0 mL of 0.9% sterile saline solution to make a working stock solution. The working stock solution was diluted with 0.9% sterile saline solution to 0.5 mg/mL for mice and 4 mg/mL for rabbits. The mouse dose (5 mg/kg, 10 mL/kg) was administered as a bolus injection via the tail vein. The rabbit dose (4 mg/kg, 1 mL/kg) was administered as a bolus injection via the marginal vein of the ear.
For mice (n=5/time point), blood (approximately 0.7 mL) was collected by cardiac puncture at 0.5, 2 and 4 hours following administration of tigecycline. For rabbits, blood (approximately 7 mL) was collected via the ear vein at 0.5, 2 and 6 hours following the tigecycline dose. Serum was separated following clot formation at room temperature and centrifugation for 15 minutes at 4° C. and 3000 rpm. The serum was transferred to a fresh tube and was stored at approximately −70° C. until analysis as described below under “Serum Sample Preparation for LC/MS Analysis. In addition, urine was collected from mice in the 4 hour blood collection group and was stored at approximately −70° C. until analysis, as described below under “Urine Sample Preparation for LC/MS Analysis.”
Mouse urine was thawed and an aliquot (1 mL) transferred to a fresh tube. The sample was centrifuged at 14,000 rpm and room temperature for 10 minutes using a Model 5415C Eppendorf centrifuge (Brinkmann Instruments, Westbury, N.Y.) to remove any particulates. The sample was then transferred to a fresh tube and was analyzed by LC/MS, as described below under “Liquid Chromatography/Mass Spectrometry Analysis.”.
Mouse and rabbit serum samples were pooled at each collection time and analyzed for tigecycline, its epimer, tigecycline glucuronide (M7 and its epimer M6), 9-aminominocycline (M3) and N-acetyl-9-aminominocycline (M9 and its epimer M8). Aliquots of serum (500 μL) were transferred to new tubes and deuterated tigecycline (30 ng/mL final concentration) was added as an internal standard (quantitative analysis only). EDTA (40 μL of 0.5 M EDTA) was added to each sample and the samples vortex mixed. Acetonitrile (500 μL) was added to each sample, samples were vortex mixed and denatured protein separated by centrifugation at 14,000 rpm and room temperature for 10 minutes using a Model 5415C Eppendorf centrifuge (Brinkmann Instruments). The supernatant was transferred to a fresh tube and the solvent evaporated under a stream of nitrogen using a Turbovap Model LV evaporator (Caliper Life Sciences, Hopkinton, Mass.).
The HPLC system used for mass spectrometric analysis was a Waters Alliance Model 2695 HPLC system (Waters Corp., Milford, Mass.). It was equipped with a built-in autosampler and a Model 996 diode array UV detector. The UV detector was set to monitor 210-400 nm. Separations for metabolite characterization were accomplished on a Phenomenex Luna C18(2) column (150×2.1 mm, 5 μm) (Phenomenex, Torrance, Calif.) equipped with a Keystone Uniguard C18 guard column (10×2.1 mm) (Thermo Electron Corp., Bellefonte, Pa.). The column temperature was 25° C. The flow rate was 0.2 mL/min. Mobile phase A was 10 mM ammonium acetate in water and mobile phase B was acetonitrile.

[9] = Tigecycline metabolites identified in CD-1 mouse serum and urine and rabbit serum samples (LC/MS); format: in vivo; conditions: in vivo, iv
Method: The column temperature was 25° C. The flow rate was 0.2 mL/min. […] Gradient 1 was used for metabolite identification (qualitative analysis).
LC/MS analysis was conducted on extracts of serum and from CD-1 mice and rabbits, and on urine from CD-1 mice. The mass spectral data for tigecycline and its metabolites are discussed below.

[10] = following multiple administrations of tigecycline; cited from earlier work

Question: For `CN(C)c1cc(N[14C](=O)CNC(C)(C)C)c(O)c2c1CC1CC3C(N(C)C)C(O)=C(C(N)=O)C(=O)C3(O)C(O)=C1C2=O` (stereo not drawn) [[^14C]tigecycline], which “percent of the radioactivity, control serum” value ([1]; after the extraction process) is on record?
Answer: 70%

Question: What about the “decrease in percent of the radioactivity, control serum” value ([1]; during the extraction process) of the same compound?
Answer: 24%

Question: What about the “percent of the radioactivity, control serum” value ([1]; prior to spiking and extracting) of the same compound?
Answer: 94%

Question: And the “radioactivity excreted in feces (mean)” value ([2]; complete collection, n=3)?
Answer: 58.6±4.4%

Question: What about the “radioactivity excreted in urine (mean)” value ([2]; complete collection, n=3) of the same compound?
Answer: 33.2±1.9%

Question: What about the “[14C]tigecycline dose recovered” value ([2]; first 48 hours, urine + feces) of the same compound?
Answer: Approximately 50%

Question: And the “Mean total recovery of radioactivity in human excreta” value ([2]; urine + feces, n=3)?
Answer: 91.8%

Question: What about the “single intravenous [14C]tigecycline dose recovered” value ([3]; including cage rinse) of the same compound?
Answer: approximately 89%

Question: And the “dose recovered in feces” value [3]?
Answer: 47%

Question: What about the “dose recovered in urine” value [3] of the same compound?
Answer: 36%

Question: What about the “percent radioactivity in spiked control serum” value ([4]; 0 hours) of the same compound?
Answer: 90%

Question: And the “percent radioactivity in spiked control serum” value ([4]; 24 hours)?
Answer: 81%

Question: And the “decrease in percent radioactivity in spiked control serum” value ([4]; over 24 hours at 37° C.)?
Answer: approximately 9%

Question: What about the “percent of radioactivity in spiked control urine” value ([5]; 0 hours) of the same compound?
Answer: 92%

Question: And the “decrease in percent of radioactivity in spiked control urine” value ([5]; 0 to 24 hours at 37° C.)?
Answer: 18%

Question: What about the “percent of radioactivity in spiked control urine” value ([5]; 24 hours) of the same compound?
Answer: 74%

Question: What about the “percent of the radioactivity, control fecal homogenates” value ([6]; following the extraction) of the same compound?
Answer: 68%

Question: What about the “percent of the radioactivity, control fecal homogenates” value ([6]; prior to extraction, 5 μg/g of homogenate) of the same compound?
Answer: 94%

Question: What about the “single intravenous [14C]tigecycline dose recovered” value ([7]; including cage rinse) of the same compound?
Answer: approximately 89%

Question: What about the “dose recovered in feces” value [7] of the same compound?
Answer: 53%

Question: And the “dose recovered in urine” value [7]?
Answer: 34%

Question: What does the source list for `CC(=O)Nc1cc(N(C)C)c2c(c1O)C(=O)C1=C(O)C3(O)C(=O)C(C(N)=O)=C(O)C(N(C)C)C3CC1C2` (stereo not drawn) [Metabolite M9, N-acetyl-9-aminominocycline]?
Answer: observed in mouse urine by LC/MS [8]: No M9 was observed; Species and matrix in which identified [9]: R-S; concentrations previously reported in human serum [10]: 3 to 15 ng/mL
